The values that follow come from patent US6008240A, “2-(1H-4(5)-imidazoyl) cyclopropyl derivatives” (Gliatech, Inc., priority 1997, dated 1999).

In this assay the target is T1, Histamine H3 Receptor (Rattus norvegicus, UniProt Q9QYN8).
T1 construct: from tissue; host or cells: rat cerebral cortex membranes
In words: In Vitro Histamine H3 Receptor Binding Analysis ([3H]-Nα-methylhistamine, rat cortical membranes). The method, then: Histamine H3 receptor affinity was determined in rat cortical membranes using the H3 selective agonist ligand, [^3 H]-N^α -methylhistamine (78.9 Ci/mmole, DuPont NEN Research Products, Boston, Mass.) according to the method of West et al., (1990) Mol. Pharmacol. 38: 610-613 with modifications. Briefly, animals were sacrificed by decapitation and the cerebral cortex was rapidly removed. Rat cortices were mechanically homogenized with an Omni 1000 motor driven homogenizer in 10 volumes (wt/vol) of Krebs-Ringers Hepes buffer (pH 7.4) containing the following protease inhibitors; EDTA (10 mmol), PMSF (0.1 mM), chymostatin (0.2 mg/50 mL) and leupeptin (0.2 mg/50 mL). The homogenate was centrifuged in a Sorvall at ~40,000 x g for 30 min. The pellet was resuspended by mechanical homogenization in 25 mL water and lysed on ice for 30 min. The homogenate was recentrifuged and the membrane lysis was repeated. The membranes were recentrifuged and the final pellet was resuspended in 14 volumes of water to give approximately 200 μg protein/100 μl final concentration. The suspension was stored at -80° C. prior to use. Protein concentrations were determined by Coomassie Plus Protein Assay (Pierce, Rockford, Ill.).
Nonspecific binding (NSB) was accounted for by the inclusion of thioperamide (10 μM). Samples were incubated for 40 minutes at 25° C. The samples were filtered through glass fiber strips, pre-washed with 0.3% polyethyleneimine, using a Brandell cell harvester. The filters were rapidly washed three times with 4 ml of 25 mM Tris buffer containing 145 mM NaCl (pH 7.4, 4° C.). Filters were transferred to polyethylene minivials and counted in 3.5 ml of scintillation fluid (Ecolume, ICN Biomedicals, Inc.). Using this procedure, the non-specific binding was less than 10% of the total binding and the binding to the glass fiber filters was negligible. Saturation and competition experiments were analyzed with the ReceptorFit saturation and competition curve fitting programs (Lundon Software, Inc., Cleveland, Ohio).

Setting [1] is: rat cortical membranes, 0.8-1.2 nM [3H]-Nα-methylhistamine, 40 minutes at 25° C., pH 7.4, read-out: H3 Receptor Ki.

Counter-ions that a name gives are not always drawn. Like-named read-outs stand apart in the source and are kept apart here.

T1 sequence (Q9QYN8 whole entry): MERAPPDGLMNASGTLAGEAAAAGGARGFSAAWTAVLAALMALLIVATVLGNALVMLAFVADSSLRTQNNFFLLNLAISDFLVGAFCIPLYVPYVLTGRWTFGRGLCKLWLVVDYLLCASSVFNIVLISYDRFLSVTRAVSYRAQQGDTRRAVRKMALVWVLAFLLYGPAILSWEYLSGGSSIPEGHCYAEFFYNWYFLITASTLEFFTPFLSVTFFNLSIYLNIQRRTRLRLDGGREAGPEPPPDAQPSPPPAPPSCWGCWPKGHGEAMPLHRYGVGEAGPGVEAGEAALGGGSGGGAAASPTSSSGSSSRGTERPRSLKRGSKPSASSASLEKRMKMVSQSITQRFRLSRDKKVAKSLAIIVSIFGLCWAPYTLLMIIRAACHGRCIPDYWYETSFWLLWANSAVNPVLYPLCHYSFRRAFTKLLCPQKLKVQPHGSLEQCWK

Turning to `O=C(NCCCc1ccccc1)[C@@H]1C[C@H]1c1c[nH]cn1` (relative stereo) [Example 33, (±)-trans-(2-imidazol-4-ylcyclopropyl)-N-(3-phenylpropyl) formamide], the Ki under setting [1] is 197 ± 23 nM.

In turn, `C(#C[C@@H]1C[C@H]1c1cnc[nH]1)CCCCc1ccccc1` (relative stereo) [Example 41, (±)-4-(2-(6-Phenylhex-1-ynyl)cyclopropyl)imidazole] returned a Ki of 16 ± 0.6 nM.

In the case of `N[C@@H](Cc1ccc(Br)cc1)C(=O)N[C@@H]1C[C@H]1c1c[nH]cn1` [Example 45], the inhibitory constant (Ki) under setting [1] is 9.4 ± 1.1 nM.

In the case of `O=C(NCc1ccccc1)[C@@H]1C[C@H]1c1c[nH]cn1` (relative stereo) [Example 1, N-(1-benzyl)-3-[(1H-imidazol-4-yl)]-(2R,3R)-trans-cyclopropanamide and N-(1-benzyl)-3-[(1H-imidazol-4-yl)]-(2S,3S)-trans-cyclopropanamide hydrochloride], the Ki came out at 53 ± 2 nM.

In turn, `O=C(CCCC1CCCCC1)[C@@H]1C[C@H]1c1c[nH]cn1` (racemic) [Example 10, (±)-trans-4-cyclohexyl-1-(2-imidazol-4-ylcyclopropyl) butan-1-one] registered a Ki of 97 ± 21 nM.

As for `O=C(NCC12CC3CC(CC(C3)C1)C2)[C@@H]1C[C@H]1c1c[nH]cn1` (relative stereo) [Example 8, (±)-trans-N-(adamantanylmethyl) (2-imidazol-4-ylcyclopropyl)formamide], under setting [1], the Ki amounted to 55 ± 6 nM.

As for `O=C(NCC(O)CC1CCCCC1)[C@@H]1C[C@H]1c1c[nH]cn1` (relative stereo) [Example 36, (±)-trans-N-(3-Cyclohexyl-2-(±)-hydroxypropyl)(2-imidazol-4-ylcyclopropyl)formamide], the Ki under setting [1] was 145 nM.

`O=C(NCCC1CCCCC1)C1CC1c1c[nH]cn1` [Example 27, (1S, 2S)-trans-N-(2-Cyclohexylethyl)(2-imidazol-4-ylcyclopropyl)formamide]: the inhibitory constant (Ki) under setting [1] was 8.8 ± 0.1 nM.

Take `C(#C[C@@H]1C[C@H]1c1c[nH]cn1)CCC1CCCCC1` (racemic) [Example 55, (±)trans-4-(2-(4-cyclohexylbut-1-ynyl)cyclopropyl)imidazole]: the affinity, expressed as Ki, was 1.8 ± 0.64 nM.

Turning to `O=C(N[C@H]1C[C@@H]1c1c[nH]cn1)[C@@H]1CC2CCCCC2N1` (stereo partly drawn) [Example 15, (2S, 3S)-trans-(7-Azabicyclo[4.3.0]non-(S)-8-yl)-N-(2-imidazol-4-ylcyclopropyl)formamide], affinity was put at a Ki of 37 ± 4 nM.

On to `CC(C)(C)CCC#C[C@@H]1C[C@H]1c1c[nH]cn1` [Example 39, (1R,2R)-4-(2-(5,5-Dimethylhex-1-ynyl)cyclopropyl)imidazole], for which, under setting [1], the Ki came out at 0.15 ± 0.04 nM.

As to `N[C@H](/C=C/[C@@H]1C[C@H]1c1c[nH]cn1)CC1CCCCC1` [Example 20, (1R,2R)-trans-1-Cyclohexyl-4-(2-imidazol-4-ylcyclopropyl)but-trans-3-en-2(S)-ylamine], the inhibitory constant (Ki) (read-out: H3 Receptor Ki, rat cortical membranes, 0.8-1.2 nM [3H]-Nα-methylhistamine, 40 minutes at 25° C., pH 7.4) amounted to 0.37 ± 0.2 nM.

For `O=C(Nc1ccccc1)[C@@H]1C[C@H]1c1c[nH]cn1` (relative stereo) [Example 5, N-(phenyl)-3-(1H-imidazol-4-yl)-trans-(2R,3R)-cyclopropanamide and N-(phenyl)-3-(1H-imidazol-4-yl)-trans-(2S,3S)-cyclopropanamide hydrochloride], the inhibition constant (Ki) under setting [1] is 267 ± 26 nM.

With `O=C(NCCC1CCCCC1)C1CC1c1c[nH]cn1` [Example 28, (1R, 2R)-trans-N-(2-Cyclohexylethyl)(2-imidazol-4-ylcyclopropyl)formamide], the Ki under setting [1] is 46 ± 13 nM.

In turn, `O=C(NCCCC1CCCCC1)[C@H]1C[C@@H]1c1cnc[nH]1` [Example 30] came in with a Ki of 42 ± 7 nM.

Turning to `O=C(N[C@@H]1C[C@H]1c1c[nH]cn1)[C@@H]1CC2CCCCC2N1` (stereo partly drawn) [Example 14, (2R, 3R)-trans-(7-Azabicyclo[4.3.0]non-(S)-8-yl)-N-(2-imidazol-4-ylcyclopropyl)formamide], the Ki was 8.5 ± 0.7 nM.

For the compound `OC(CCCC1CCCCC1)[C@@H]1C[C@H]1c1c[nH]cn1` (mixture of isomers) [Example 19, (±)-trans4-Cyclohexyl-1-(2-imidazol-4-ylcyclopropyl)butan-1-ol], the Ki under setting [1] came out at 160 ± 9 nM.
